# Experimental data taken from ChEMBL document CHEMBL1201862, “PubChem BioAssay data set” (2004).
#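 Dose response: 5 concentrations. Exposure: 48 h. Format: 96-well plates. Endpoint: linear interpolation; highest concentration if not reached. GI50 is the concentration that inhibits growth by half.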 Active and inactive are the calls of the source. Rule as the data show it: active = GI50 up to about 1.1 µM and inactive = higher.
# Legend:
# Assay in all cases: NCI tumour cell line growth inhibition, 48 h
# OVCAR-3 = test system: OVCAR-3
# SNB-75 = test system: SNB-75
# NCI-H522 = test system: NCI-H522
# CCRF-CEM = test system: CCRF-CEM
# A549 = test system: A549
# K562 = test system: K562
# UACC-257 = test system: UACC-257
# SN12C = test system: SN12C
# A498 = test system: A498
# SF-268 = test system: SF-268
# HOP-62 = test system: HOP-62
# SF-539 = test system: SF-539
# HT-29 = test system: HT-29
# EKVX = test system: EKVX
# SK-MEL-5 = test system: SK-MEL-5
# COLO 205 = test system: COLO 205
# SNB-19 = test system: SNB-19
# HL-60 = test system: HL-60
# RPMI-8226 = test system: RPMI-8226
# HCT-15 = test system: HCT-15
SMILES,GI50 (OVCAR-3),GI50 (SNB-75),GI50 (NCI-H522),GI50 (CCRF-CEM),GI50 (A549),GI50 (K562),GI50 (UACC-257),GI50 (SN12C),GI50 (A498),GI50 (SF-268),GI50 (HOP-62),GI50 (SF-539),GI50 (HT-29),GI50 (EKVX),GI50 (SK-MEL-5),GI50 (COLO 205),GI50 (SNB-19),GI50 (HL-60),GI50 (RPMI-8226),GI50 (HCT-15) [µM]
O=c1oc2ccccc2n1P(=O)(Oc1ccc(Cl)cc1)n1c(=O)oc2ccccc21,> 100 µM (inactive),> 100 µM (inactive),> 100 µM (inactive),18.5 µM (inactive),> 100 µM (inactive),42.2 µM (inactive),> 100 µM (inactive),> 100 µM (inactive),> 100 µM (inactive),> 100 µM (inactive),> 100 µM (inactive),> 100 µM (inactive),> 100 µM (inactive),> 100 µM (inactive),> 100 µM (inactive),> 100 µM (inactive),> 100 µM (inactive),41.8 µM (inactive),–,–
CCCCCCCCCCCCCCCc1nnc(S)[nH]1,> 100 µM (inactive),> 100 µM (inactive),19.6 µM (inactive),51.3 µM (inactive),–,52.6 µM (inactive),88.7 µM (inactive),> 100 µM (inactive),> 100 µM (inactive),> 100 µM (inactive),> 100 µM (inactive),> 100 µM (inactive),> 100 µM (inactive),> 100 µM (inactive),–,–,> 100 µM (inactive),49.8 µM (inactive),79.3 µM (inactive),48
COc1ccc2nc3c(C)cc4ccccc4n3c2c1,71 µM (inactive),28.2 µM (inactive),–,47.6 µM (inactive),41.1 µM (inactive),41.2 µM (inactive),> 100 µM (inactive),> 100 µM (inactive),11.9 µM (inactive),86.9 µM (inactive),75.3 µM (inactive),86.9 µM (inactive),55 µM (inactive),19.2 µM (inactive),57.9 µM (inactive),> 10 µM (inactive),> 100 µM (inactive),> 100 µM (inactive),55.1 µM (inactive),56.5
CN1C(=O)C(C#N)C2C[C@@]1(C)Oc1ccccc12 (stereo partly drawn),> 100 µM (inactive),> 100 µM (inactive),> 100 µM (inactive),> 100 µM (inactive),> 100 µM (inactive),> 100 µM (inactive),> 100 µM (inactive),–,> 100 µM (inactive),> 100 µM (inactive),> 100 µM (inactive),–,> 100 µM (inactive),> 100 µM (inactive),> 100 µM (inactive),> 100 µM (inactive),> 100 µM (inactive),> 100 µM (inactive),> 100 µM (inactive),> 100
C=C1CC[C@@H](Br)C(C)(C)[C@]12CCC(C)(O)C(Cl)C2 (stereo partly drawn),20.3 µM (inactive),31 µM (inactive),16.6 µM (inactive),24.2 µM (inactive),20 µM (inactive),22.4 µM (inactive),17.9 µM (inactive),16.4 µM (inactive),28.9 µM (inactive),17.4 µM (inactive),23.3 µM (inactive),–,16.8 µM (inactive),19.1 µM (inactive),20.9 µM (inactive),16 µM (inactive),19.8 µM (inactive),19.9 µM (inactive),18.8 µM (inactive),16
CC(=O)/N=C1\N/C(=C/c2cc([N+](=O)[O-])ccc2O)CN1C,> 100 µM (inactive),> 100 µM (inactive),–,–,> 100 µM (inactive),–,> 100 µM (inactive),> 100 µM (inactive),–,–,> 100 µM (inactive),> 100 µM (inactive),> 100 µM (inactive),> 100 µM (inactive),> 100 µM (inactive),> 100 µM (inactive),> 100 µM (inactive),69.2 µM (inactive),–,> 100
CCOC(=O)/C=C1/C(CCCOCc2ccccc2)C2CCCC23CC2(CCN13)OCCO2 (stereo not drawn),18.3 µM (inactive),2.99 µM (inactive),6.82 µM (inactive),19.5 µM (inactive),18.9 µM (inactive),13.5 µM (inactive),19.5 µM (inactive),25.5 µM (inactive),19.9 µM (inactive),42 µM (inactive),–,–,16.9 µM (inactive),34.8 µM (inactive),15.7 µM (inactive),19.1 µM (inactive),33.3 µM (inactive),10.2 µM (inactive),6.24 µM (inactive),20.4
CC1=C(SCCO)C(=O)c2ccccc2C1=O,2.82 µM (inactive),16.5 µM (inactive),3.72 µM (inactive),1.82 µM (inactive),15.9 µM (inactive),3.18 µM (inactive),13 µM (inactive),15.6 µM (inactive),16.9 µM (inactive),15.5 µM (inactive),15.9 µM (inactive),12.1 µM (inactive),19.3 µM (inactive),8.41 µM (inactive),13.3 µM (inactive),11.1 µM (inactive),25.4 µM (inactive),0.55 µM (active),2.55 µM (inactive),7.35
